What was measured:
Experiment in all cases: relative viability (nuclei count vs DMSO), 5 days (fraction); higher = more cells survive
[1] = compound: CCN(CCO)CCCC(C)Nc1ccnc2cc(Cl)ccc12 [Hydroxychloroquine] + CC(C)C[C@H](NC(=O)[C@H](Cc1ccccc1)NC(=O)c1cnccn1)B(O)O [Bortezomib] (partner 0.002 µM)
In short: (§1)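 Lung cancer cell lines were seeded in 1536-well plates and dosed by pin tool the next day, with either a single drug or a fixed anchor-drug dose combined with five library-drug doses (not always all listed) spaced in √10 steps. Five days later, one step fixed the cells and stained their nuclei (final 0.05% Triton X-100, 1% formaldehyde, 1 ug/ml Hoechst), and nuclei were counted on 4× images. Relative viability is the nuclei count in treated wells divided by the count in vehicle wells, and each value is the median of duplicate plates.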

[2] = compound: CCN(CCO)CCCC(C)Nc1ccnc2cc(Cl)ccc12 [Hydroxychloroquine] + NC(=O)Nc1cc(-c2cccc(F)c2)sc1C(=O)N[C@H]1CCCNC1 [AZD7762] (partner 0.2 µM)
In short: as §1

[3] = compound: CCN(CCO)CCCC(C)Nc1ccnc2cc(Cl)ccc12 [Hydroxychloroquine] + Cc1cc(Nc2cc(N3CCN(C)CC3)nc(Sc3ccc(NC(=O)C4CC4)cc3)n2)n[nH]1 [Tozasertib] (partner 0.1 µM)
In short: as §1

[4] = compound: CCN(CCO)CCCC(C)Nc1ccnc2cc(Cl)ccc12 [Hydroxychloroquine] + Nc1ncn([C@H]2C[C@H](O)[C@@H](CO)O2)c(=O)n1 [Decitabine] (partner 2 µM)
In short: as §1

Cell Line: NCI-H2085
- relative viability ([1]; first compound 0.5 µM): 0.987
- relative viability ([1]; first compound 1.581 µM): 0.94
- relative viability ([1]; first compound 5 µM): 1.24
- relative viability ([1]; first compound 15.81 µM): 1.07
- relative viability ([1]; first compound 50 µM): 1.1
- relative viability ([2]; first compound 0.5 µM): 1.03
- relative viability ([2]; first compound 1.581 µM): 0.933
- relative viability ([2]; first compound 5 µM): 0.922
- relative viability ([2]; first compound 15.81 µM): 0.927
- relative viability ([2]; first compound 50 µM): 1.06
- relative viability ([3]; first compound 0.5 µM): 0.858
- relative viability ([3]; first compound 1.581 µM): 0.828
- relative viability ([3]; first compound 5 µM): 0.799
- relative viability ([3]; first compound 15.81 µM): 0.813
- relative viability ([3]; first compound 50 µM): 0.884
- relative viability ([4]; first compound 0.5 µM): 0.623
- relative viability ([4]; first compound 1.581 µM): 0.507
- relative viability ([4]; first compound 5 µM): 0.604
- relative viability ([4]; first compound 15.81 µM): 0.606
- relative viability ([4]; first compound 50 µM): 0.578

Cell Line: H3255
- relative viability ([1]; first compound 0.5 µM): 0.835
- relative viability ([1]; first compound 1.581 µM): 0.743
- relative viability ([1]; first compound 5 µM): 0.722
- relative viability ([1]; first compound 15.81 µM): 0.68
- relative viability ([1]; first compound 50 µM): 0.702
- relative viability ([2]; first compound 0.5 µM): 0.857
- relative viability ([2]; first compound 1.581 µM): 0.897
- relative viability ([2]; first compound 5 µM): 0.875
- relative viability ([2]; first compound 15.81 µM): 0.882
- relative viability ([2]; first compound 50 µM): 0.891
- relative viability ([3]; first compound 0.5 µM): 0.687
- relative viability ([3]; first compound 1.581 µM): 0.558
- relative viability ([3]; first compound 5 µM): 0.682
- relative viability ([3]; first compound 15.81 µM): 0.796
- relative viability ([3]; first compound 50 µM): 0.677
- relative viability ([4]; first compound 0.5 µM): 0.612
- relative viability ([4]; first compound 1.581 µM): 0.536
- relative viability ([4]; first compound 5 µM): 0.593
- relative viability ([4]; first compound 15.81 µM): 0.718
- relative viability ([4]; first compound 50 µM): 0.592

Cell Line: LCLC-103H
- relative viability ([1]; first compound 0.5 µM): 1.13
- relative viability ([1]; first compound 1.581 µM): 0.837
- relative viability ([1]; first compound 5 µM): 1.04
- relative viability ([1]; first compound 15.81 µM): 1.15
- relative viability ([1]; first compound 50 µM): 1.06
- relative viability ([2]; first compound 0.5 µM): 0.855
- relative viability ([2]; first compound 1.581 µM): 0.672
- relative viability ([2]; first compound 5 µM): 0.76
- relative viability ([2]; first compound 15.81 µM): 0.743
- relative viability ([2]; first compound 50 µM): 0.827
- relative viability ([3]; first compound 0.5 µM): 0.433
- relative viability ([3]; first compound 1.581 µM): 0.404
- relative viability ([3]; first compound 5 µM): 0.541
- relative viability ([3]; first compound 15.81 µM): 0.507
- relative viability ([3]; first compound 50 µM): 0.56
- relative viability ([4]; first compound 0.5 µM): 0.699
- relative viability ([4]; first compound 1.581 µM): 0.751
- relative viability ([4]; first compound 5 µM): 0.727
- relative viability ([4]; first compound 15.81 µM): 0.736
- relative viability ([4]; first compound 50 µM): 0.767

Cell Line: LOU-NH91
- relative viability ([1]; first compound 0.5 µM): 0.467
- relative viability ([1]; first compound 1.581 µM): 0.507
- relative viability ([1]; first compound 5 µM): 0.492
- relative viability ([1]; first compound 15.81 µM): 0.475
- relative viability ([1]; first compound 50 µM): 0.539
- relative viability ([2]; first compound 0.5 µM): 0.762
- relative viability ([2]; first compound 1.581 µM): 0.646
- relative viability ([2]; first compound 5 µM): 0.776
- relative viability ([2]; first compound 15.81 µM): 0.744
- relative viability ([2]; first compound 50 µM): 0.828
- relative viability ([3]; first compound 0.5 µM): 0.651
- relative viability ([3]; first compound 1.581 µM): 0.6
- relative viability ([3]; first compound 5 µM): 0.687
- relative viability ([3]; first compound 15.81 µM): 0.692
- relative viability ([3]; first compound 50 µM): 0.723
- relative viability ([4]; first compound 0.5 µM): 0.761
- relative viability ([4]; first compound 1.581 µM): 0.732
- relative viability ([4]; first compound 5 µM): 0.833
- relative viability ([4]; first compound 15.81 µM): 0.83
- relative viability ([4]; first compound 50 µM): 0.824

Cell Line: NCI-H3122
- relative viability ([1]; first compound 0.5 µM): 0.981
- relative viability ([1]; first compound 1.581 µM): 1.01
- relative viability ([1]; first compound 5 µM): 1.05
- relative viability ([1]; first compound 15.81 µM): 1.05
- relative viability ([1]; first compound 50 µM): 1.07
- relative viability ([2]; first compound 0.5 µM): 0.956
- relative viability ([2]; first compound 1.581 µM): 0.976
- relative viability ([2]; first compound 5 µM): 1.06
- relative viability ([2]; first compound 15.81 µM): 0.993
- relative viability ([2]; first compound 50 µM): 1.13
- relative viability ([3]; first compound 0.5 µM): 0.434
- relative viability ([3]; first compound 1.581 µM): 0.368
- relative viability ([3]; first compound 5 µM): 0.397
- relative viability ([3]; first compound 15.81 µM): 0.456
- relative viability ([3]; first compound 50 µM): 0.505
- relative viability ([4]; first compound 0.5 µM): 0.429
- relative viability ([4]; first compound 1.581 µM): 0.413
- relative viability ([4]; first compound 5 µM): 0.468
- relative viability ([4]; first compound 15.81 µM): 0.426
- relative viability ([4]; first compound 50 µM): 0.403

Cell Line: RERF-LC-KJ
- relative viability ([1]; first compound 0.5 µM): 1.15
- relative viability ([1]; first compound 1.581 µM): 1.1
- relative viability ([1]; first compound 5 µM): 0.984
- relative viability ([1]; first compound 15.81 µM): 1.15
- relative viability ([1]; first compound 50 µM): 1.08
- relative viability ([2]; first compound 0.5 µM): 0.959
- relative viability ([2]; first compound 1.581 µM): 0.961
- relative viability ([2]; first compound 5 µM): 1.01
- relative viability ([2]; first compound 15.81 µM): 0.91
- relative viability ([2]; first compound 50 µM): 1.08
- relative viability ([3]; first compound 0.5 µM): 0.452
- relative viability ([3]; first compound 1.581 µM): 0.523
- relative viability ([3]; first compound 5 µM): 0.541
- relative viability ([3]; first compound 15.81 µM): 0.487
- relative viability ([3]; first compound 50 µM): 0.478
- relative viability ([4]; first compound 0.5 µM): 0.659
- relative viability ([4]; first compound 1.581 µM): 0.684
- relative viability ([4]; first compound 5 µM): 0.754
- relative viability ([4]; first compound 15.81 µM): 0.7
- relative viability ([4]; first compound 50 µM): 0.608

Cell Line: NCI-H1651
- relative viability ([1]; first compound 0.5 µM): 0.947
- relative viability ([1]; first compound 1.581 µM): 0.932
- relative viability ([1]; first compound 5 µM): 0.866
- relative viability ([1]; first compound 15.81 µM): 0.982
- relative viability ([1]; first compound 50 µM): 0.943
- relative viability ([2]; first compound 0.5 µM): 0.501
- relative viability ([2]; first compound 1.581 µM): 0.585
- relative viability ([2]; first compound 5 µM): 0.47
- relative viability ([2]; first compound 15.81 µM): 0.451
- relative viability ([2]; first compound 50 µM): 0.457
- relative viability ([3]; first compound 0.5 µM): 0.845
- relative viability ([3]; first compound 1.581 µM): 0.62
- relative viability ([3]; first compound 5 µM): 0.762
- relative viability ([3]; first compound 15.81 µM): 0.65
- relative viability ([3]; first compound 50 µM): 0.714
- relative viability ([4]; first compound 0.5 µM): 0.626
- relative viability ([4]; first compound 1.581 µM): 0.649
- relative viability ([4]; first compound 5 µM): 0.652
- relative viability ([4]; first compound 15.81 µM): 0.633
- relative viability ([4]; first compound 50 µM): 0.509

Cell Line: NCI-H2087
- relative viability ([1]; first compound 0.5 µM): 0.829
- relative viability ([1]; first compound 1.581 µM): 0.959
- relative viability ([1]; first compound 5 µM): 0.835
- relative viability ([1]; first compound 15.81 µM): 0.869
- relative viability ([1]; first compound 50 µM): 1.1
- relative viability ([2]; first compound 0.5 µM): 1.33
- relative viability ([2]; first compound 1.581 µM): 1.19
- relative viability ([2]; first compound 5 µM): 1.46
- relative viability ([2]; first compound 15.81 µM): 1.32
- relative viability ([2]; first compound 50 µM): 1.48
- relative viability ([3]; first compound 0.5 µM): 0.265
- relative viability ([3]; first compound 1.581 µM): 0.22
- relative viability ([3]; first compound 5 µM): 0.317
- relative viability ([3]; first compound 15.81 µM): 0.261
- relative viability ([3]; first compound 50 µM): 0.284
- relative viability ([4]; first compound 0.5 µM): 0.265
- relative viability ([4]; first compound 1.581 µM): 0.258
- relative viability ([4]; first compound 5 µM): 0.242
- relative viability ([4]; first compound 15.81 µM): 0.219
- relative viability ([4]; first compound 50 µM): 0.294

From the supplement of paper PMC10307832
